35 compounds from patent US8802700B2 (Vertex Pharmaceuticals Incorporated, priority 2010, dated 2014) can be followed below.

As usually defined, the EC50 is the concentration at which the effect is half-maximal.

The target of this assay is T1, ΔF508-CFTR (Homo sapiens, UniProt P13569, DEL508-508).
T1 construct: expressed in transfected cells
The experiment in a line: Membrane potential optical assay (FRET voltage-sensor dyes, VIPR), identification of potentiator compounds. The conditions noted are these: Table 3, assay not given; for Emax: read-out: % Activity (% Efficacy, relative efficacy). It counts as cell-based. In outline: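 NIH3T3 mouse fibroblasts stably expressing ΔF508-CFTR, cultured 24 h at 27 °C, were loaded with FRET voltage dyes CC2-DMPE and DiSBAC2(3). Double-addition format: first addition of Cl⁻-free (gluconate) medium with or without compound; membrane-potential change read as fluorescence on VIPR II.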

T1 sequence (P13569 with tags, fused parts or gaps DEL508-508): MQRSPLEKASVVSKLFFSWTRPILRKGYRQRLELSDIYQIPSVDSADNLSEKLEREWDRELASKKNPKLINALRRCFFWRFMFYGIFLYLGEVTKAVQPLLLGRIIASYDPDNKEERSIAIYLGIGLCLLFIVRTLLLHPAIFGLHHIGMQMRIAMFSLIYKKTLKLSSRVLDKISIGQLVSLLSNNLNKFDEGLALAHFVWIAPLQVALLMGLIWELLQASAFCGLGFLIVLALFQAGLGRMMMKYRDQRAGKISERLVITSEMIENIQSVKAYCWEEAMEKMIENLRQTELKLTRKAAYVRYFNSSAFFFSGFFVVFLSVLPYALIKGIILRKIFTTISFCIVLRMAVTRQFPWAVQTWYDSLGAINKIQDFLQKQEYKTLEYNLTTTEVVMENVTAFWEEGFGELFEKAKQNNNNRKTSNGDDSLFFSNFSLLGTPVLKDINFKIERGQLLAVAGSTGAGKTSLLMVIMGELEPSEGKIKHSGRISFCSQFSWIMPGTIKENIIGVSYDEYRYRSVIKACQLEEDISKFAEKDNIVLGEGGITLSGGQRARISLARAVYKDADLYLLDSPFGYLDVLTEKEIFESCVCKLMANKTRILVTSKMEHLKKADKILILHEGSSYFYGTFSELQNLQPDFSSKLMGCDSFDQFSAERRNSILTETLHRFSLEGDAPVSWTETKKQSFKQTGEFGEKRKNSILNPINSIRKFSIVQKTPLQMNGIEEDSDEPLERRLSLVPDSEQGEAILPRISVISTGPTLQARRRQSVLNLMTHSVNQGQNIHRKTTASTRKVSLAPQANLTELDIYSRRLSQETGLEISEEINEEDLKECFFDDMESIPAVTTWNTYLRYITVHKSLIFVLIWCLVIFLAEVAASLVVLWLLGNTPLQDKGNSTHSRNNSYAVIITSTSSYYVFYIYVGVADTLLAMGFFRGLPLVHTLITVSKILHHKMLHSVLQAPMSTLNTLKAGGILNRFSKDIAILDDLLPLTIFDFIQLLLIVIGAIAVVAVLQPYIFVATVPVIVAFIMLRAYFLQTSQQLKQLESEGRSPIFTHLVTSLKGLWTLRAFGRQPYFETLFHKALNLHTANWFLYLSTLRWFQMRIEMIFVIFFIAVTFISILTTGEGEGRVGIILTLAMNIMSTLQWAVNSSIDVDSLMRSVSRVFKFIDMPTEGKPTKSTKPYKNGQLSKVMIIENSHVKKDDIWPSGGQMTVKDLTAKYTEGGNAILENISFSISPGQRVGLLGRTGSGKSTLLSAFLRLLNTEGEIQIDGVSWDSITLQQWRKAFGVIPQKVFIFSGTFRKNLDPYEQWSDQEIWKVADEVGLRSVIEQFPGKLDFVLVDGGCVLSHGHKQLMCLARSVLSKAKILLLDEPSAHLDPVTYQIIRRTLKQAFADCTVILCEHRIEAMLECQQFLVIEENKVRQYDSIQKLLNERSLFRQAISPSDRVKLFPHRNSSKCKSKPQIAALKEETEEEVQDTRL

For `CC1(c2cc(F)c(NC(=O)c3cnc4ccccc4c3O)cc2O)CCCCCC1` [Compound 483, N-[2-fluoro-5-hydroxy-4-(1-methylcycloheptyl)-phenyl]-4-hydroxy-quinoline-3-carboxamide], the Emax was in the range of 25 to 100%.
Consider `CNc1cc(NC(=O)c2c[nH]c3ccccc3c2=O)ccc1C(C)(C)C` [Compound 484, N-(3-methylamino-4-tert-butyl-phenyl)-4-oxo-1H-quinoline-3-carboxamide], for which the Emax was 25 to 100%.
Regarding `CN(C)c1cc(NC(=O)c2c[nH]c3ccccc3c2=O)ccc1C(C)(C)C` [Compound 485, N-(3-Dimethylamino-4-tert-butyl-phenyl)-4-oxo-1H-quinoline-3-carboxamide], the EC50 was less than 10 µM and the Emax was in the range of 25 to 100%.
For `CC(C)(C)c1cc(F)c(NC(=O)c2c[nH]c3cc(F)c(F)cc3c2=O)cc1O` [Compound 486, 6,7-difluoro-N-(2-fluoro-5-hydroxy-4-tert-butyl-phenyl)-4-oxo-1H-quinoline-3-carboxamide], the Emax lay within 25 to 100%.
As to `CC(C)(C)c1cc(C(F)(F)F)c(NC(=O)c2c[nH]c3cccc(O)c3c2=O)cc1O` [Compound 487, 5-hydroxy-N-[5-hydroxy-4-tert-butyl-2-(trifluoromethyl)phenyl]-4-oxo-1H-quinoline-3-carboxamide], the Emax lay in the range of 25 to 100%.
On to `O=C(Nc1cc(N2CCCCC2)cc(C(F)(F)F)c1)c1c[nH]c2ccccc2c1=O` [Compound 488, 4-oxo-N-[3-(1-piperidyl)-5-(trifluoromethyl)phenyl]-1H-quinoline-3-carboxamide], for which the Emax lay within 25 to 100%.
On the same count and under the same terms, the same measure for `Cc1ccc2[nH]cc(C(=O)Nc3ccc(N4CCC(C)(C)C4)cc3C(F)(F)F)c(=O)c2c1` [Compound 489, N-[4-(3,3-dimethylpyrrolidin-1-yl)-2-(trifluoromethyl)phenyl]-6-methyl-4-oxo-1H-quinoline-3-carboxamide]: 25 to 100%; for `CC(C)(C)c1ccc(NC(=O)c2c[nH]c3ccc(F)cc3c2=O)cc1O` [Compound 490, 6-fluoro-N-(3-hydroxy-4-tert-butyl-phenyl)-4-oxo-1H-quinoline-3-carboxamide]: 25 to 100%.
Same read-out and setting: the value for `CC(C)(C)c1ccc(NC(=O)c2c[nH]c3cccc(O)c3c2=O)cc1F` [Compound 491, N-(3-fluoro-4-tert-butyl-phenyl)-5-hydroxy-4-oxo-1H-quinoline-3-carboxamide] was 25 to 100%.
In the case of `COC(=O)C1CCCCN1c1ccc(NC(=O)c2c[nH]c3ccccc3c2=O)c(C(F)(F)F)c1` (centres unmarked) [Compound 492, methyl 1-[4-[(4-oxo-1H-quinolin-3-yl)carbonylamino]-3-(trifluoromethyl)phenyl]piperidine-2-carboxylate], the Emax is more than 100%.
Consider `CC(CO)(CO)c1ccc(NC(=O)c2c[nH]c3cccc(O)c3c2=O)cc1` [Compound 493, 5-hydroxy-N-[4-[2-hydroxy-1-(hydroxymethyl)-1-methyl-ethyl]phenyl]-4-oxo-1H-quinoline-3-carboxamide], for which the Emax fell in the range of 25 to 100%.
Consider `O=C(Nc1cc2[nH]ccc2cc1C(F)(F)F)c1c[nH]c2cccc(O)c2c1=O` [Compound 494, 5-hydroxy-4-oxo-N-[5-(trifluoromethyl)-1H-indol-6-yl]-1H-quinoline-3-carboxamide], for which the Emax lay in the range of 25 to 100%.
On the same count and under the same terms, the value for `O=C(Nc1ccc2cc(C(F)(F)F)[nH]c2c1)c1c[nH]c2ccc(F)cc2c1=O` [Compound 495, 6-fluoro-4-oxo-N-[2-(trifluoromethyl)-1H-indol-6-yl]-1H-quinoline-3-carboxamide] was 25 to 100%.
On to `COc1ccc2[nH]cc(C(=O)Nc3cc(O)c(C(C)(C)C)cc3C(C)(C)C)c(=O)c2c1` [Compound 496, N-(5-hydroxy-2,4-ditert-butyl-phenyl)-6-methoxy-4-oxo-1H-quinoline-3-carboxamide], for which the Emax lay within 25 to 100%.
The same measure, in the same setting: the value for `CC(C)c1cc(C(F)(F)F)c(NC(=O)c2c[nH]c3ccccc3c2=O)cc1O` [Compound 497, N-[5-hydroxy-4-isopropyl-2-(trifluoromethyl)phenyl]-4-oxo-1H-quinoline-3-carboxamide] was more than 100%; that for `Cc1cccc2[nH]cc(C(=O)Nc3cc(O)c(C4(C)CCCCC4)cc3F)c(=O)c12` [Compound 498, N-[2-fluoro-5-hydroxy-4-(1-methylcyclohexyl)-phenyl]-5-methyl-4-oxo-1H-quinoline-3-carboxamide] was 25 to 100%.
For `Cc1ccc2c(=O)c(C(=O)Nc3cc(O)c(C4(C)CCCCC4)cc3F)c[nH]c2c1` [Compound 499, N-[2-fluoro-5-hydroxy-4-(1-methylcyclohexyl)-phenyl]-7-methyl-4-oxo-1H-quinoline-3-carboxamide], the Emax fell in the range of 25 to 100%.
Regarding `CC(C)(C)c1cc2cc[nH]c2cc1NC(=O)c1c[nH]c2cccc(O)c2c1=O` [Compound 500, 5-hydroxy-4-oxo-N-(5-tert-butyl-1H-indol-6-yl)-1H-quinoline-3-carboxamide], the Emax was in the range of 25 to 100%.
In the case of `O=C(Nc1cc(O)c(C(F)(F)F)cc1F)c1c[nH]c2ccccc2c1=O` [Compound 501, N-[2-fluoro-5-hydroxy-4-(trifluoromethyl)phenyl]-4-oxo-1H-quinoline-3-carboxamide], the Emax fell in the range of 25 to 100%.
The same measure, in the same setting: the value for `COc1cc(NC(=O)c2c[nH]c3cccc(O)c3c2=O)cc(C(F)(F)F)c1` [Compound 502, 5-hydroxy-N-[3-methoxy-5-(trifluoromethyl)phenyl]-4-oxo-1H-quinoline-3-carboxamide] was 25 to 100%; that for `Cc1ccc2[nH]cc(C(=O)Nc3ccc(N4CCCC4C)cc3C(F)(F)F)c(=O)c2c1` (centres unmarked) [Compound 503, 6-methyl-N-[4-(2-methylpyrrolidin-1-yl)-2-(trifluoromethyl)phenyl]-4-oxo-1H-quinoline-3-carboxamide] was 25 to 100%; that for `COc1ccc2[nH]cc(C(=O)Nc3ccc(N4CCC(C)(C)C4)cc3C(F)(F)F)c(=O)c2c1` [Compound 504, N-[4-(3,3-dimethylpyrrolidin-1-yl)-2-(trifluoromethyl)phenyl]-6-methoxy-4-oxo-1H-quinoline-3-carboxamide] was 25 to 100%.
In the case of `CC(C)(C)c1cc(C(C)(C)C)c(NC(=O)c2c[nH]c3c(C#N)cccc3c2=O)cc1O` [Compound 505, 8-cyano-N-(5-hydroxy-2,4-ditert-butyl-phenyl)-4-oxo-1H-quinoline-3-carboxamide], the Emax is less than 25%.
With `O=C(Nc1ccc(C(F)(F)F)c(O)c1)c1c[nH]c2ccccc2c1=O` [Compound 506, N-[3-hydroxy-4-(trifluoromethyl)phenyl]-4-oxo-1H-quinoline-3-carboxamide], the Emax is 25 to 100%.
The same measure, in the same setting: the same measure for `CCc1cc(C(C)(C)C)c(O)cc1NC(=O)c1c[nH]c2cccc(O)c2c1=O` [Compound 507, N-(2-ethyl-5-hydroxy-4-tert-butyl-phenyl)-5-hydroxy-4-oxo-1H-quinoline-3-carboxamide]: 25 to 100%.
Consider `CC(C)(C)c1c[nH]c2cc(NC(=O)c3c[nH]c4ccccc4c3=O)c(C(F)(F)F)cc12` [Compound 508, 4-oxo-N-[3-tert-butyl-5-(trifluoromethyl)-1H-indol-6-yl]-1H-quinoline-3-carboxamide], for which the EC50 was less than 10 µM and the Emax was in the range of 25 to 100%.
With `CC(C)(C)c1cc(C(F)(F)F)c(NC(=O)c2c[nH]c3ccc(F)cc3c2=O)cc1O` [Compound 509, 6-fluoro-N-[5-hydroxy-4-tert-butyl-2-(trifluoromethyl)phenyl]-4-oxo-1H-quinoline-3-carboxamide], the Emax was 25 to 100%.
Still for that read-out and setting: the value for `CC(C)(C)c1ccc(NC(=O)c2c[nH]c3ccccc3c2=O)cc1N1CCCCC1` [Compound 510, 4-oxo-N-[3-(1-piperidyl)-4-tert-butyl-phenyl]-1H-quinoline-3-carboxamide] was 25 to 100%; that for `Cc1cccc2[nH]cc(C(=O)Nc3ccc(N4CCC[C@@H]4C)cc3C(F)(F)F)c(=O)c12` [Compound 511, (S)-5-methyl-N-(4-(2-methylpyrrolidin-1-yl)-2-(trifluoromethyl)phenyl)-4-oxo-1,4-dihydroquinoline-3-carboxamide] was 25 to 100%; that for `O=C(Nc1cc(O)c(C2CCCC2)cc1C#CCO)c1c[nH]c2ccccc2c1=O` [Compound 512, N-[4-cyclopentyl-5-hydroxy-2-(3-hydroxyprop-1-ynyl)phenyl]-4-oxo-1H-quinoline-3-carboxamide] was 25 to 100%.
With `CN(C)[C@H]1CCN(c2ccc(NC(=O)c3c[nH]c4ccccc4c3=O)c(C(F)(F)F)c2)C1` [Compound 513, (S)-N-(4-(3-(dimethylamino)pyrrolidin-1-yl)-2-(trifluoromethyl)phenyl)-4-oxo-1,4-dihydroquinoline-3-carboxamide], the Emax was 25 to 100%.
Still for that read-out and setting: the same measure for `O=C(Nc1ccc(C(F)(F)F)cc1N1CCCCC1)c1c[nH]c2ccccc2c1=O` [Compound 514, 4-oxo-N-[2-(1-piperidyl)-4-(trifluoromethyl)phenyl]-1H-quinoline-3-carboxamide]: 25 to 100%.
Regarding `CC(C)(C)c1cc(C(C)(C)C)c(NC(=O)c2c[nH]c3ccc(C(F)(F)F)cc3c2=O)cc1O` [Compound 515, N-(5-hydroxy-2,4-ditert-butyl-phenyl)-4-oxo-6-(trifluoromethyl)-1H-quinoline-3-carboxamide], the EC50 lay within 10 to 25 µM and the Emax was less than 25%.
As to `Cc1cccc2[nH]cc(C(=O)Nc3ccc(N4[C@@H](C)CC[C@@H]4C)cc3C(F)(F)F)c(=O)c12` [Compound 516, N-(4-((2S,5S)-2,5-dimethylpyrrolidin-1-yl)-2-(trifluoromethyl)phenyl)-5-methyl-4-oxo-1,4-dihydroquinoline-3-carboxamide], the Emax fell in the range of 25 to 100%.
As to `CCOc1cccc2c(=O)c(C(=O)Nc3ccc(C(C)C)cc3C(F)(F)F)c[nH]c12` [Compound 517, 8-ethoxy-N-[4-isopropyl-2-(trifluoromethyl)phenyl]-4-oxo-1H-quinoline-3-carboxamide], the Emax was less than 25%.
